Source: patent US20200165194A1, “ADDITIVE COMPOSITION FOR CULTURE MEDIUM, ADDITIVE COMPOUND FOR CULTURE MEDIUM, AND METHOD FOR CULTURE OF CELLS OR TISSUE USING SAME” (NISSAN CHEMICAL CORPORATION, priority 2017, published 2020)
Where two headings read alike, the source gives them in different places.

Legend:
Format in all cases: cell-based
[1] = test system: human stomach adenocarcinoma-derived cell line AGS; experiment: Various human cancer cells-1, 3D culture, WST-8 (Experimental Example 5); conditions: 4 days; for viability at 5 µM / viability at 10 µM: Homo sapiens, 96 h, read-out: number of viable cells, relative value to control (100%)
Excerpt: (§1) Various human-derived cancer cells were precultured (single layer culture) in respective media shown below. Human uterus cervix cancer-derived cell line HeLa (manufactured by American Type Culture Collection (hereinafter indicated as ATCC), 10% fetal bovine serum (FBS, manufactured by Corning)-containing Dulbecco's Modified Eagle's Medium (hereinafter abbreviated as DMEM) (manufactured by Wako Pure Chemical Industries, Ltd.)), human malignant melanoma-derived cell line A375 (manufactured by ATCC, 10% FBS-containing DMEM), human epithelial-like cell cancer-derived cell line A431 (manufactured by ATCC, 10% FBS and 1% MEM non-essential amino acid solution (MEM Non-Essential Amino Acids solution (hereinafter abbreviated as NEAA) (manufactured by Wako Pure Chemical Industries, Ltd.))-containing Eagle's Minimum Essential Medium (hereinafter abbreviated as EMEM) (manufactured by Wako Pure Chemical Industries, Ltd.)), human stomach adenocarcinoma-derived cell line AGS (manufactured by DS PHARMA BIO MEDICAL, 10% FBS-containing Ham's F-12 (manufactured by Wako Pure Chemical Industries, Ltd.)), human prostate cancer-derived cell line LNCaP clone FGC (manufactured by ATCC, 10% FBS-containing RPMI1640 (manufactured by Wako Pure Chemical Industries, Ltd.)), human colon adenocarcinoma-derived cell line HCT116 (manufactured by DS PHARMA BIO MEDICAL, 10% FBS-containing McCoy's 5A Medium (manufactured by Sigma-Aldrich)), human alveolar basal epithelial adenocarcinoma-derived cell line A549 (manufactured by DS PHARMA BIO MEDICAL, 10% FBS-containing DMEM), human prostate cancer-derived cell DU145 (manufactured by ATCC, 10% FBS-containing EMEM). The above-mentioned cells in the logarithmic growth phase were washed with PBS, a 0.25 w/v % trypsin-1 mmol/L EDTA (ethylenediaminetetraacetic acid) solution (manufactured by Wako Pure Chemical Industries, Ltd.) was added, and adherent cells were detached by incubating at 37° C. for 1-5 min. Each medium was added and the mixture was centrifuged. After resuspension in the same medium, each cell was recovered.
(§2) The aforementioned various cells were suspended in respective deacylated gellan gum-containing or not containing media (deacylated gellan gum concentration was 0.015 w/v %, and 0.020 w/v % for RPMI1640 alone), and seeded in a 96 well low attachment U-bottom plate (manufactured by Corning, deacylated gellan gum-free medium), or a low attachment flat bottom plate (manufactured by Corning, deacylated gellan gum-containing medium) at a cell concentration of 1000-12000 cells/135 μL/well (all 3D culture). After static culture overnight in 37° C., 5% CO2 incubator, a DMSO solution of the compound to be used in the present invention was added to each medium at a final concentration of 5 μM or 10 μM. The amount of each compound solution to be added was 15 μL/well. As a control, a DMSO solution dissolved in a medium was added (DMSO final concentration 0.1%). After continuously culturing in an incubator at 37° C., 5% CO2 for 4 days, WST-8 solution (manufactured by DOJINDO LABORATORIES) was added at 15 μL/well, and the mixture was reacted in the same incubator for 1-2 hr. […] When compared with the compound no-addition (control), one showing a value of not more than 119% as -, one showing a value of not less than 120% as ◯, and one showing a value of not less than 150% as ⊚ are shown in the tenth table.

[2] = test system: human prostate cancer-derived cell line LNCaP clone FGC; experiment: as above; conditions: 4 days
Excerpt: as §1, §2

[3] = test system: Human mesenchymal stem cells (hMSC); experiment: Human mesenchymal stem cells-1: viable cell count, 2D and 3D culture (Experimental Example 9); conditions: for cell proliferation rate (relative value): hMSC, 10 μM, 7 days, compound non-addition = 1; for number of hMSC cells (in words): two-dimensional and three-dimensional cell culture conditions
Procedure: Human mesenchymal stem cells (hMSC, manufactured by TOYOBO) were precultured by a single layer culture method (2D) using an MF-medium mesenchymal stem cell proliferation medium (manufactured by TOYOBO). In three-dimensional culture method (3D), hMSC were suspended in a medium composition added with deacylated gellan gum, and seeded in a […] flat bottom Ultr-low Attachment surface plate (manufactured by Corning Incorporated, #3471) at 1.2×10^5 cells/2 mL/well. In 2D, hMSC were suspended in a deacylated gellan gum-free medium composition, and seeded in a 6-well flat bottom plate (manufactured by Corning Incorporated, #3516) at 4.0×10^4 cells/2 mL/well. […] As a control, DMSO was added at a final concentration of 0.1%. Seven days later, in the three-dimensional culture method, cells were collected from the wells, washed with PBS, and the supernatant was removed. Then, a trypsin 0.25 w/v % trypsin-1 mmol/L EDTA (ethylenediaminetetraacetic acid) solution (manufactured by Wako Pure Chemical Industries, Ltd.) was added and the cells were incubated at 37° C. for 2-5 min to disperse the spheres into single cells. The medium was added, and the mixture was centrifuged to remove the supernatant. Thereafter, the cells were resuspended in the same medium, a part was suspended in Trypan Blue (manufactured by Wako Pure Chemical Industries, Ltd.), and the number of viable cells was counted using automatic cell counter TC20 (manufactured by BIO-RAD).
In a single layer culture method, the cells were washed with PBS, 0.25 w/v % trypsin-1 mmol/L EDTA solution was added, and the cells were detached by incubating at 37° C. for 2-5 min. The medium was added, the mixture was centrifuged and the supernatant was removed. Thereafter, the cells were resuspended in the same medium, a part was suspended in Trypan Blue (manufactured by Wako Pure Chemical Industries, Ltd.) and the number of viable cells was counted using TC-20 (manufactured by BIO-RAD).
CD34 antibody (APC, manufactured by BD Bioscience), CD73 (BV421, manufactured by BD Bioscience), CD29 (BB515, manufactured by BD Bioscience) were added to the above-mentioned cell suspension, and the mixture was incubated on ice for 30 min. The cells were washed twice with 2% SM buffer (2% FBS/PBS), SM containing 1 μg/mL of Propidium Iodide (PI) was added, and the mixture was analyzed with FACSAria (manufactured by Becton Dickinson). The cell number with compound non-addition (control) was taken as 1, and relative value with addition of each compound is calculated in the fifteenth table. The positive rates or negative rates of CD34, CD73, and CD29 of cells after three-dimensional culture (3D) under the conditions with no addition or addition of the compound are shown in the sixteenth table.

[4] = low attachment U-bottom plate (gellan gum-free), 5 μM
[5] = low attachment U-bottom plate (gellan gum-free), 10 μM
[6] = low attachment flat bottom plate (gellan gum medium), 10 μM

SMILES	number of viable cells, relative value to control (100%) [1, 4]	number of viable cells, relative value to control (100%) [1, 5]	number of viable cells, relative value to control (100%) [1, 6]	number of viable cells, relative value to control (100%) [2, 4]	number of viable cells, relative value to control (100%) [2, 5]	cell proliferation rate (relative value) ([3]; 2D)	cell proliferation rate (relative value) ([3]; 3D (deacylated gellan gum))	number of hMSC cells (in words) [3]	viability at 5 µM [1, 4] [%]	viability at 10 µM [1, 5] [%]	viability at 5 µM ([1]; low attachment flat bottom plate (gellan gum medium), 5 μM) [%]	viability at 10 µM [1, 6] [%]	viability at 5 µM ([2]; Homo sapiens, LNCaP-Clone-FGC, 96 h, low attachment U-bottom plate (gellan gum-free), 5 μM, read-out: number of viable cells, relative value to control (100%)) [%]	viability at 5 µM ([2]; Homo sapiens, LNCaP-Clone-FGC, 96 h, low attachment flat bottom plate (gellan gum medium), 5 μM, read-out: number of viable cells, relative value to control (100%)) [%]	viability at 10 µM ([2]; Homo sapiens, LNCaP-Clone-FGC, 96 h, low attachment flat bottom plate (gellan gum medium), 10 μM, read-out: number of viable cells, relative value to control (100%)) [%]
CCC(=NNC(=O)C(CC)Nc1ccccc1)c1ccc(O)c(C)c1O (stereo not shown) [k-1:H-7]	◯ (one showing a value of not less than 120% as ◯)	◯ (one showing a value of not less than 120% as ◯)	◯ (one showing a value of not less than 120% as ◯)	⊙	◯ (one showing a value of not less than 120% as ◯)	1.9	4	showed an effect of increasing the number of hMSC cells	–	–	–	–	–	–	–
CC/C(=N\NC(=O)Nc1ccccc1)c1ccc(O)c(C)c1O [k-1:H-10]	–	–	–	–	⊙	1.3	1.7	showed an effect of increasing the number of hMSC cells	120 to 150	< 119	< 119	< 119	120 to 150	< 119	< 119
